“And” between values parts separate entries of the source, which are not always exact repeats. Identical values can stand only once.

In assay [1] the test system is mouse EPS cell aggregates. Nature of the assay: EPS-blastoid formation efficiency (blastocyst-like structures / total cell aggregates) in AggreWell 3D differentiation. The format is cell-based. The note with it: for Nblastoid/Ntotal (%), EPS-blastoid efficiency with treatment of Wnt antagonists: XAV939 5 μM or IWR-1-endo 10 μM added to medium at day 1, five days in blastoid induction medium; for EPS-blastoids formation (effect of WNT antagonists, in words): blastoid induction medium supplemented with antagonist. The source says:
To further improve the differentiation conditions, different growth factors, cytokines, and small molecules were included to identify condition(s) that enable the generation of structures mimicking blastocysts (EPS-blastoids), which contain a cavity and an inner cell mass. […] Using this optimized condition, EPS-blastoids consistently emerged three days after cell seeding (FIG. 1D). EPS-blastoids continued to enlarge, reaching an early blastocyst-like size at around day five or day six. To quantify the efficiency of EPS-blastoid formation, the total number of blastocyst-like structures were counted, with this count divided it by the total number of cell aggregates.
EPS colonies were dissociated into single cells by incubation with TrypLE (Thermo Fisher Scientific, 12604-013). Cell resuspension was transferred into a 0.1% gelatin-coated plate and incubated at 37° C. for 30 min to allow irradiated MEF cells attach to the plate. The supernatant containing the EPS cells were collected, filtered through a 40 μm cell strainer, and counted using the TC-10 counter (Bio-Rad, 1450001). AggreWell 400 (STEMCELL Technologies, 34415) was prepared following the manufacturer's instructions. EPS-blastoid basal medium is composed of 25% TSC basal medium (see above), 25% N2B27 basal medium (see above), and 50% KSOM (see above). In some experiments, M16 (Sigma-Aldrich, M7292) was used to replace KSOM. Approximately 6,000 cells (five cells per microwell for 1200 microwells) were resuspended in EPS-blastoid basal medium supplemented with 2 μM ROCK inhibitor Y-27632 (Reagents Direct, 53-B80-50), 12.5 ng/ml rhFGF4 (R&D, 235F4025), 0.5 μg/ml Heparin (Sigma-Aldrich, H3149), 3 μM GSK3 inhibitor CHIR99021 (Reagents Direct, 27-H76), 5 ng/ml BMP4 (Proteintech, HZ-1040), and 0.5 μM A83-01 (Axon Medchem, 1421) and seeded into one well of the 24-well AggreWell plate. The plate was centrifuged at 300g for one minute and transferred into an incubator. The day of cell seeding was counted as day 0 of the process. Medium was removed 24 h later (day 1) and replaced with fresh medium without Y-27632. Additional medium change is optional for the rest of the EPS-blastoid formation process. Starting from day 4, blastoids were manually picked up using a mouth pipette (Sigma-Aldrich, A5177) under a stereomicroscope for analysis or downstream experiments. For testing of the effect of antagonists or inhibitors on EPS-blastoid induction, chemicals were added to the medium at day 1. XAV939 (5 μM; Tocris, 3748) or IWR-1-endo (10 μM; STEMCELL Technologies, 72562) was used to inhibit Wnt signaling. Verteporfin (2 μM; Tocris, 5305) was used to inhibit YAP/TEAD interaction. For testing whether a single EPS cell forms into a blastoid, WT cells and Puromycin+/mcherry+ cells were mixed at a ratio of 10:1 and seeded onto Aggrewell 400 as stated above. Puromycin (0.25 μg/ml; InvivoGen, ant-pr-1) was added to the medium 24 hours later to eliminate helper cells gradually.

A further assay has as its system EPS cells. Nature of the assay: EPS cell survival on the day of seeding. The format is cell-based, mouse. To be noted: treated on the day of seeding.
The next assay concerns mouse ESCs. The note with it: He et al., 2008; cited from earlier work.

Regarding `O=C(Nc1cccc2cccnc12)c1ccc(N2C(=O)[C@@H]3[C@H](C2=O)[C@@H]2C=C[C@H]3C2)cc1` [IWR-1-endo], in assay [1] (per experiment), the “Nblastoid/Ntotal (%), EPS-blastoid efficiency with treatment of Wnt antagonists” value was 0.28% and 0.41% and 1.23% and 0.81% and 0.42%. Besides, the “EPS-blastoids formation (effect of WNT antagonists, in words)” value in assay [1] is “significantly inhibited”.

Turning to `Oc1nc(-c2ccc(C(F)(F)F)cc2)nc2c1CSCC2` [XAV939], in assay [1] (per experiment, listed as XVA939), the “Nblastoid/Ntotal (%), EPS-blastoid efficiency with treatment of Wnt antagonists” value was 0.3% and 0.28% and 0.45% and 0.41% and 0.8%. The “EPS-blastoids formation (effect of WNT antagonists, in words)” value in assay [1] is listed as “significantly inhibited”. With `C[C@@H](N)[C@H]1CC[C@H](C(=O)Nc2ccncc2)CC1` [Y-27632], in the assay on EPS cells, the “cell survival of EPS cells” value is recorded as “enhanced cell survival”.

With verteporfin [VP], in assay [1] (verteporfin 2 μM added to medium at day 1, five days of blastoid induction, per experiment), the “Nblastoid/Ntotal (%), EPS-blastoid efficiency with treatment of YAP-TEAD inhibitor” value was 1.43% and 0.36% and 0.87% and 1.05%.

B1: Wnt-3a (protein, UniProt P56704 19-352, looked up)
Protein Wnt-3a: SYPIWWSLAVGPQYSSLGSQPILCASIPGLVPKQLRFCRNYVEIMPSVAEGIKIGIQECQHQFRGRRWNCTTVHDSLAIFGPVLDKATRESAFVHAIASAGVAFAVTRSCAEGTAAICGCSSRHQGSPGKGWKWGGCSEDIEFGGMVSREFADARENRPDARSAMNRHNNEAGRQAIASHMHLKCKCHGLSGSCEVKTCWWSQPDFRAIGDFLKDKYDSASEMVVEKHRESRGWVETLRPRYTYFKVPTERDLVYYEASPNFCEPNPETGSFGTRDRTCNVSSHGIDGCDLLCCGRGHNARAERRREKCRCVFHWCCYVSCQECTRVYDVHTCK
notes: Wnt agonist protein
With B1, the “CDX2 (trophoblast transcription factor) expression in mouse ESCs” value in the assay with mouse ESCs was “transiently up-regulates CDX2”.

The values are drawn from US20230115640A1, “BLASTOCYST-LIKE STRUCTURES FROM EXTENDED PLURIPOTENT STEM CELLS” (Salk Institute for Biological Studies, priority 2019, published 2023).
